Laboratory results: ChEMBL document CHEMBL1201862, “PubChem BioAssay data set” (2004)
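Results reflect a 48-hour exposure of cells in 96-well plates to compound at five concentrations. The concentration for 50% growth inhibition is given as GI50.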 Calls of active or inactive are those of the source. No stated cut-off is given here; in the data, active = GI50 up to about 1.1 µM and inactive = higher.

How the values were obtained:
Test in all cases: NCI anticancer screen, dose series, 48 h
CAKI-1 = tested on: CAKI-1
EKVX = tested on: EKVX
LOX IMVI = tested on: LOX IMVI
NCI-H522 = tested on: NCI-H522
OVCAR-5 = tested on: OVCAR-5
RPMI-8226 = tested on: RPMI-8226
RXF 393 = tested on: RXF 393
SF-268 = tested on: SF-268
SF-539 = tested on: SF-539
SK-MEL-28 = tested on: SK-MEL-28
SN12C = tested on: SN12C
SNB-75 = tested on: SNB-75
SR = tested on: SR
U-251 = tested on: U-251
UACC-257 = tested on: UACC-257
A549 = tested on: A549

Measured: GI50

O=C1[C@@H]2C(c3ccccc3[N+](=O)[O-])=NO[C@@H]2C(=O)N1c1ccc(Cc2ccc(N3C(=O)[C@H]4C(c5ccccc5[N+](=O)[O-])=NO[C@H]4C3=O)cc2)cc1
inactive: CAKI-1 > 100 µM | EKVX > 100 µM | LOX IMVI > 100 µM | NCI-H522 > 100 µM | OVCAR-5 > 100 µM | RPMI-8226 > 100 µM | RXF 393 > 100 µM | SF-268 > 100 µM | SF-539 > 100 µM | SK-MEL-28 > 100 µM | SN12C > 100 µM | SNB-75 > 100 µM | SR > 100 µM | U-251 > 100 µM | UACC-257 > 100 µM

COc1ccc(CC(=O)NCCc2ccc(OC)c(OC)c2OC)cc1
inactive: A549 30.1 µM | EKVX > 100 µM | NCI-H522 > 100 µM | OVCAR-5 > 100 µM | RPMI-8226 > 100 µM | RXF 393 > 100 µM | SF-268 > 100 µM | SF-539 16.4 µM | SK-MEL-28 > 100 µM | SN12C > 100 µM | SNB-75 > 100 µM | SR > 100 µM | U-251 > 100 µM | UACC-257 > 100 µM

CCOc1ccc(/N=C(/NC(=O)c2ccccc2)SC)cc1
inactive: A549 > 100 µM | CAKI-1 > 100 µM | EKVX > 100 µM | LOX IMVI > 100 µM | OVCAR-5 > 100 µM | RPMI-8226 > 100 µM | RXF 393 > 100 µM | SF-268 > 100 µM | SF-539 > 100 µM | SK-MEL-28 > 100 µM | SN12C > 100 µM | SNB-75 > 100 µM | SR > 100 µM | U-251 > 100 µM | UACC-257 > 100 µM

O=C1OC(c2cccc(C(F)(F)F)c2)c2ccc3ccccc3c21 (centres undefined)
inactive: A549 36.8 µM | CAKI-1 > 10 µM | EKVX > 10 µM | LOX IMVI 8.45 µM | NCI-H522 > 10 µM | OVCAR-5 > 10 µM | RXF 393 13.5 µM | SF-268 > 10 µM | SF-539 > 100 µM | SK-MEL-28 > 10 µM | SN12C > 10 µM | SNB-75 18.7 µM | SR > 10 µM | U-251 7.59 µM | UACC-257 6.32 µM

NC(=S)N/C=C1\C(=O)Oc2ccccc2C1=O
inactive: A549 97.1 µM | CAKI-1 20.7 µM | EKVX > 100 µM | LOX IMVI > 100 µM | NCI-H522 69.2 µM | OVCAR-5 > 100 µM | RPMI-8226 > 100 µM | RXF 393 18.4 µM | SF-268 24.7 µM | SF-539 34 µM | SK-MEL-28 > 100 µM | SN12C 37.2 µM | SNB-75 14.1 µM | U-251 43.8 µM | UACC-257 > 100 µM

C#CCN(C(=O)C(F)(F)F)c1ccc(C(=O)c2ccc(N(CC#C)C(=O)C(F)(F)F)cc2)cc1
inactive: A549 84.9 µM | EKVX 61 µM | NCI-H522 14.9 µM | OVCAR-5 49.9 µM | RPMI-8226 15.6 µM | RXF 393 35.3 µM | SF-268 38.4 µM | SF-539 37.8 µM | SK-MEL-28 35.3 µM | SN12C 34.9 µM | SNB-75 43.4 µM | U-251 31.6 µM | UACC-257 26.4 µM

O=[N+]([O-])c1ccc(/C=N/C2CCCCC2)cc1
inactive: A549 > 100 µM | CAKI-1 > 100 µM | EKVX > 100 µM | LOX IMVI > 100 µM | OVCAR-5 > 100 µM | RXF 393 > 100 µM | SF-268 > 100 µM | SF-539 > 100 µM | SK-MEL-28 > 100 µM | SN12C > 100 µM | SNB-75 > 100 µM | SR > 100 µM | U-251 > 100 µM | UACC-257 > 100 µM

O=S1(=O)OCCOS(=O)(=O)C1(Cl)Cl
inactive: A549 > 100 µM | CAKI-1 47 µM | EKVX > 100 µM | LOX IMVI 61.4 µM | NCI-H522 > 100 µM | RPMI-8226 > 100 µM | SF-268 43.5 µM | SF-539 > 100 µM | SK-MEL-28 > 100 µM | SN12C > 100 µM | SNB-75 > 100 µM | SR 35.6 µM | UACC-257 > 100 µM

CCOc1ccc(NC(=O)CC2SC(Nc3ccc(C)cc3C)=NC2=O)cc1 (centres undefined)
inactive: A549 > 100 µM | CAKI-1 > 100 µM | EKVX > 100 µM | LOX IMVI > 100 µM | NCI-H522 5.38 µM | OVCAR-5 > 100 µM | RPMI-8226 29.9 µM | RXF 393 > 100 µM | SF-268 43.6 µM | SF-539 26.7 µM | SK-MEL-28 > 100 µM | SN12C > 100 µM | SNB-75 49.2 µM | SR 29.5 µM | U-251 36 µM | UACC-257 85.7 µM

COC(=O)C(C(=O)C(=O)Nc1nnc(S)[nH]1)c1csc(N)n1 (centres undefined)
inactive: A549 > 100 µM | CAKI-1 > 100 µM | EKVX > 100 µM | LOX IMVI > 100 µM | NCI-H522 > 100 µM | OVCAR-5 > 100 µM | RPMI-8226 > 100 µM | RXF 393 > 100 µM | SF-268 > 100 µM | SF-539 > 100 µM | SK-MEL-28 > 100 µM | SN12C > 100 µM | SNB-75 > 100 µM | SR > 100 µM | U-251 > 100 µM | UACC-257 > 100 µM

COc1cc(/C=N\O[Si](C)(C)C(C)(C)C)ccc1O[Si](C)(C)C(C)(C)C
inactive: A549 > 100 µM | CAKI-1 > 100 µM | EKVX > 100 µM | LOX IMVI 26.6 µM | OVCAR-5 33.7 µM | RPMI-8226 56.6 µM | RXF 393 36 µM | SF-268 67.9 µM | SF-539 41.7 µM | SN12C > 100 µM | SNB-75 > 100 µM | U-251 30 µM | UACC-257 > 100 µM

CCOC(=O)CC1(C(=O)OCC)c2[nH]c3ccccc3c2CCN1Cc1ccccc1 (centres undefined)
inactive: A549 19.5 µM | CAKI-1 31 µM | EKVX 21.8 µM | LOX IMVI 18.5 µM | NCI-H522 13.2 µM | OVCAR-5 20.5 µM | RXF 393 17.7 µM | SF-268 20.2 µM | SF-539 19.9 µM | SK-MEL-28 20.4 µM | SN12C 14.2 µM | SNB-75 20.8 µM | SR 22 µM | U-251 15 µM | UACC-257 17.7 µM

CN(C)[C@@H]1C(O)=C(C(=O)NCNCCCC(=O)O)C(=O)[C@@]2(O)C(O)=C3C(=O)c4c(O)cccc4[C@@](C)(O)[C@H]3C[C@@H]12
inactive: A549 > 100 µM | CAKI-1 > 100 µM | EKVX > 100 µM | LOX IMVI > 100 µM | NCI-H522 > 100 µM | OVCAR-5 > 100 µM | RPMI-8226 > 100 µM | RXF 393 > 100 µM | SF-268 > 100 µM | SF-539 > 100 µM | SK-MEL-28 > 100 µM | SN12C > 100 µM | SR > 100 µM | U-251 > 100 µM | UACC-257 > 100 µM
